In patent publication US8461389B2, “Psycho-pharmaceuticals” (University College Dublin, National University of Ireland, …, priority 2008, dated 2013):

Tests used:
Sigma 1 receptor = molecular target: T1, Sigma 1 receptor (Homo sapiens, UniProt Q99720); test: Novascreen receptor affinity screen (competition with reference ligand), Sigma 1; format: binding; conditions: 1 μM Captodiamine competing with a reference ligand; read-out: percent target inhibition, Sigma 1 receptor
T1 construct: Novascreen (contract screen)
T1 sequence (Q99720 whole entry, species assumed): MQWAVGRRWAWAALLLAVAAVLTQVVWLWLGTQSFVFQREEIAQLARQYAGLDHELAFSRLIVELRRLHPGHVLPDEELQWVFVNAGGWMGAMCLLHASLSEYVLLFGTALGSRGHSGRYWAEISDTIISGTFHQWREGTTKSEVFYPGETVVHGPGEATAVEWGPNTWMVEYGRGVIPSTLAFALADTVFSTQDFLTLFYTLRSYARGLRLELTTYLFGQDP
Experimental: (§1) The Structure (FIG. 9A), receptor affinity (FIG. 9B), pharmacokinetics (FIG. 9C) and growth factor modulation (FIG. 9D) of Captodiamine are provided. Analysis of receptor affinities was performed by Novascreen™ and those displacing >20% of the natural ligand are indicated by the filled boxes. Blood levels of Captodiamine were determined by GC mass spectroscopy. In separate samples taken from a cannulated jugular at increasing time intervals following a single intraperitoneal injection of tha drug (5 mg/kg). Growth factor analysis was performed using tissue homogenates and ELISA assays specific for each growth factor (Promega). Values were analysed using a Student t-test and those with a p value<0.05 were accepted as significant and are indicated with an asterisk.
The higher the target inhibition value, the greater the affinity Captodiamine has for this particular receptor as it displaces a greater proportion of the reference ligand. This assay is an automated high throughput assay performed on cell lines that express only one type of receptor and was carried out by Novascreen (www.novascreen.com). Receptor affinity is a good starting point for determining the mechanism of action for a particular compound.

C57B16 mice [1] = test: Novel object recognition (NOR) test; format: in vivo
Excerpt: Before training the animals with objects, they are first allowed to acclimatize to the testing environment, a white Perspex box (30 cm by 20 cm) equipped with an overhead camera. After an acclimation session, the animals are ready for the training stage. This stage involves the introduction of two identical objects (Lego Duplo) to the environment before allowing the rodent to explore for a period of five minutes: Following the training period, the rodent is removed from the environment for a delay period which can range from 5 minutes to 24 hours, depending on the type of memory being tested. After the delay, the rodent is returned to the arena, where one of the original objects has been replaced by a new one, such as a glass container.
The amount of time that the rodents spends exploring each object can be calculated by hand or by using a computer program receiving input from the overhead camera. The literature describes a variety of methods for analyzing results. One technique involves dividing the time spent exploring the novel object by the total time spent exploring either object, yielding % novel exploration. An alternative technique is used to calculate the discrimination ratio, defined as the difference in exploration time for the objects divided by total exploration time. The method of analysis should be suited to the specific experimental setup. […]

C57B16 mice [2] = test: Elevated X-maze; format: in vivo; conditions: 3 and 5 mg/kg i.p. once daily for 7 days; FIG. 4
Excerpt: The elevated X-Maze, otherwise known as the Elevated Plus Maze is a test that relies on the inherent conflict between exploration of a novel area and avoidance of its aversive features. The test may be used in male or female rats or mice or male gerbils. It is reliable in a wide range of strains and in group-housed or isolated animals. The maze consists of four arms in the form of an x or plus: two open arms and two arms of the same size, also with an open roof but enclosed by walls. The two open arms are opposite each other and converge into a central platform. The animal under investigating is observed by a video camera and its movements scored by the tracking software Ethovision by Noldus. During the experiment the animal is placed in the central platform of the maze facing an open arm and is observed for 5 minutes with the following being measured: number of entries into open arms, number of entries into closed arms, time spent in open arms, time spent in closed arms and finally the time spent in the central square (File et al., Current Protocols in Neuroscience (2004) 8.3.1-8.3.22).
The elevated X-maze has strong claims to validity as an animal model of anxiety and is of great utility in evaluating putative anxiety modulating drugs. The test is based on rodents' natural fear of heights and open spaces. […]

[3] = tested on: BDNF (Brain-derived neurotrophic factor); test: BDNF levels in brain regions by ELISA after sub-chronic administration; format: in vivo, mice; conditions: sub-chronic 7 day treatment, FIG. 9D
Experimental: Neurotrophic factor concentration was determined by using an ELISA purchased from Promega Inc;
The Experimental protocol employed in the behavioural evaluation of Captodiamine is set out as follows: Three separate cohorts of C57B16 mice were employed in the behavioural evaluation of Captodiamine (see FIG. 7). Cohort 1 was used to evaluate the drug effect on prepulse inhibition, spatial learning, open-field and novel object recognition. Cohort 2 was used to evaluate drug effects on the forced swim test and the elevated X-maze. The behavioural tests were administered in sequence as per day number indicated in the bar of FIG. 7. The drug was administered by the intraperitoneal route and on the day of training the drug was administered after the behavioural analysis. Cohort 3 was used for analysis of growth factor (GF) expression (such as, for example, Brain Derived Neurotrophic Factor (BDNF and Glial Derived Neurotrophic Factor (GDNF). The brains were removed immediately after sacrifice, the relevant brain areas dissected, homogenised and stored at −80° C. until analysis. Captodiamine/UCD-0620 was administered at doses of 3 and 5 mg/kg. The compound was administered once daily, via the intraperitoneal route, for 7 days prior to testing and the animals were drug-free at time of training.
as §1

CCCCSc1ccc(C(SCCN(C)C)c2ccccc2)cc1 (stereo not shown) [Captodiamine, 2-[(4-butylsulfanylphenyl)-phenyl-methyl]sulfanyl-N,N-dimethyl-ethanamin]
inhibition at 1 µM (Sigma 1 receptor): > 90% | time investigating objects during the training phase, Novel Object Recognition Task (C57B16 mice [1]; 3 mg/kg dose, one-tailed t-test): significantly longer investigating objects | time exploring objects in training (day 1) and testing (day 2) phases, NOR (C57B16 mice [1]; FIG. 8 right hand panel): more time exploring objects | time exploring the open arms of the elevated X-maze (C57B16 mice [2]): significantly longer periods exploring the open arms | BDNF expression levels, hippocampus [3]: no effect | BDNF expression levels, hypothalamus [3]: significantly increased | BDNF expression levels, prefrontal cortex [3]: no effect
